# Laboratory results taken from the METLIN SMRT retention time set (Domingo-Almenara et al. 2019).
# Test: gradient 5% acetonitrile 3 min, to 50% in 2 min, to 85% in 15 min, held 3 min, 100 µL/min
# Conditions: column: Zorbax Extend-C18 2.1 x 50 mm; eluents: water / acetonitrile, 0.1% formic acid
# Procedure, shortened: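 Pure standards were run in mixtures of ~100 molecules by HPLC coupled to a quadrupole time-of-flight mass spectrometer. The column was a Zorbax Extend-C18 (2.1 × 50 mm, 1.8 μm) at 100 μL/min, with water and acetonitrile each containing 0.1% formic acid, in positive and negative ionization mode. Dead and dwell volumes were 40 μL and 900 μL. Retention time was taken from computationally picked adduct peaks, each manually inspected, with data collected over 3 months.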
row,Compound,RP-LC retention time
1,O=c1[nH]cnc2scc(-c3ccc(Cl)cc3)c12,734 s
2,CCn1c(=O)sc2cc(S(=O)(=O)N3CCC(C(=O)Nc4ccccc4OC)CC3)ccc21,917 s
3,CN1C(=O)Cc2ccccc2C1C(=O)NCc1ccco1 (centres undefined),668 s
4,O=C(Nc1cccc(-c2cn3cccnc3n2)c1)c1cccc(Br)c1,728 s
5,COc1cc(NC(=O)c2cc(C(C)C)n3nccc3n2)cc(OC)c1OC,915 s
6,Cc1csc(-c2cc(S(=O)(=O)NCCc3ccc(S(N)(=O)=O)cc3)c(C)n2C)n1,769 s
7,CC(C)(C)CC(=O)N1CC(c2nc(-c3ccccc3)no2)C2(CCOCC2)C1 (centres undefined),904 s
8,CCN1CCN(c2cc(C(=O)O)c3cc(NS(=O)(=O)c4cccc(C)c4)ccc3n2)CC1,596 s
9,Cc1ccn(-c2ccc(Nc3ccc(NC(=O)c4ccccc4C(F)(F)F)cc3)nn2)n1,809 s
10,CC1(C)CC(=O)c2cn(-c3ccccc3)c(=O)c(C(=O)N3CCc4ccccc43)c2C1,910 s
11,CCN1c2ccc(C)cc2C(=O)NC12CCN(C(=O)c1cc(F)cc(F)c1)CC2,858 s
12,O=C(Cn1c(=O)oc2ccccc21)N1CC2CC(C1)c1cccc(=O)n1C2 (centres undefined),588 s
13,O=C(Cn1c(=O)n(C2CC2)c(=O)c2nscc21)NCc1cccs1,670 s
14,CCOC(=O)c1c(C)oc2nc(C)nc(NCCCc3ccccc3)c12,1280 s
15,COc1ccc(CCNc2nc(-c3ccccc3)cs2)cc1OC,830 s
16,CC1=C(c2ccccc2)S(=O)(=O)N=C1N1CCCN(C(=O)CC2CCCC2)CC1,861 s
17,Cc1cc(C)cc(N2CCC(NC(=O)c3cccc(C#N)c3)C2=O)c1 (centres undefined),863 s
18,O=C(Cn1ncc2c(c1=O)N(C1CC1)C(=O)CS2)NCc1ccco1,648 s
19,Cn1ncc(N2CCCC(C(=O)NC3CCCCCC3)C2)cc1=O (centres undefined),726 s
20,CCN1CCN(c2ccc(NC(=O)c3cccc(Cl)c3)cn2)C1=O,802 s
21,O=C(Nc1ccc(F)cc1)c1cn(CC(O)c2ccc3c(c2)OCO3)nn1 (centres undefined),777 s
22,CCCn1cc(CCNS(=O)(=O)c2cccc(OC)c2)c2cccnc21,837 s
23,Fc1ccc(-c2csc(Cc3nc(-c4cccc(Cl)c4)no3)n2)cc1,1310 s
24,COc1ccc(C(CC(=O)NCCN2CCOCC2)N2Cc3ccccc3C2=O)cc1OC (centres undefined),603 s
25,CN1C(=O)c2ccccc2Oc2ccc(C(=O)NCc3ccc4c(c3)OCO4)cc21,826 s
26,Cc1noc(C)c1CC(=O)N1CCCCCCNC(=O)[C@@H]2CCCC[C@@H]21,739 s

row,Compound,RP-LC retention time
1,CN(C(=O)c1cc2c(=O)oc3ccccc3c2n1C)c1ccccc1F,1060 s
2,CN(C)C(=O)c1cccnc1OC1CCN(C(=O)c2cccc(Br)c2)C1 (centres undefined),709 s
3,Clc1cccc(-c2nc(-c3ccc4nncn4c3)no2)c1,921 s
4,COc1ccccc1C(=O)N1CCCC1c1cc(C(C)C)no1 (centres undefined),831 s
5,COc1ccc(OC)c(NC2=NS(=O)(=O)C(c3ccccc3)=C2C)c1,948 s
6,Cc1nc2cc(N3CC(C(=O)NCc4ccccc4Cl)CC3=O)ccc2o1 (centres undefined),734 s
7,O=C(N[C@H]1C[C@@H]2C[C@H]1CN2C(=O)c1ccc2c(c1)OCO2)c1cccs1,871 s
8,O=S(=O)(Nc1ccc(F)cc1)c1cccnc1Nc1cccc(F)c1,1060 s
9,CCOc1ccc(-n2ccn3cc(-c4ccc(C)c(C)c4)nc3c2=O)cc1,938 s
10,COc1cc(NC(=O)N2CCN(c3ccc(=O)n(-c4ccc(C)cc4)n3)CC2)cc(OC)c1OC,749 s
11,Cc1ccc(C(=O)N2C[C@@H](F)C[C@H]2C(=O)N2CCc3ccccc3C2)s1,800 s
12,NC(=O)c1nnn(Cc2ccccc2F)c1N,596 s
13,O=C(Nc1cccn2ncnc12)c1ccc(Cl)s1,820 s
14,CC(C)c1cccc(NC(=O)Cn2cnc3nc(N4CCCC(C(=O)NC5CC5)C4)sc3c2=O)c1 (centres undefined),723 s
15,CCCN1C(=O)c2cc(C(=O)NCc3ccccc3)nn2CC1(C)C(=O)NC1CCCC1 (centres undefined),605 s
16,COC(=O)CCNC(=O)C1c2ccccc2C(=O)N(Cc2ccco2)C12CCCCC2 (centres undefined),799 s
17,CC(=O)c1ccc(NC(=O)Cn2nc3c4cc(-c5ccc(C(C)C)cc5)nn4ccn3c2=O)cc1,1020 s
18,CCOc1ccc(CNC2CCN(c3ccc(C(=O)NC4CC4)cn3)C2)cc1 (centres undefined),578 s
19,Cc1cc(NCc2ccccn2)n2c(nc3ccccc32)c1C#N,590 s
20,CCCCS(=O)(=O)c1cc2c(cc1NC(=O)c1cccc(F)c1)n(C)c(=O)n2C,966 s
21,COc1ccc(C2Cn3nnc(-c4nc(-c5ccccc5Cl)no4)c3CO2)cc1 (centres undefined),1150 s
22,Cc1ccc(-c2nccn3cc(C(=O)N4CCN(CC(C)C)CC4)nc23)cc1,656 s
23,COc1ccc(OCc2nc(-c3ccc(N4CCCCC4)nc3)no2)cc1,1010 s
24,COc1ncccc1CNC(=O)c1cnn2cccnc12,638 s
25,CCN(CC)CCn1c(NCc2ccc(Br)cc2)nc2ccccc21,581 s
26,COc1ccc(NS(=O)(=O)c2c(C)nn(-c3ccc(-c4ccc(C)c(C)c4)nn3)c2C)cc1OC,1050 s

# Next, values leading:
row,RP-LC retention time,Compound
1,923 s,O=C(O)/C(=C/c1ccccc1)c1ccccc1
2,686 s,Cc1cc(C)c(S(=O)(=O)N2CCc3c(c(CN4CCCC4)nn3C)C2)c(C)c1
3,597 s,CCOC(=O)c1c(C)[nH]c(CCC(=O)NCCN2CCOCC2)c1C
4,808 s,Cc1cccc(NS(=O)(=O)c2cc3n(c2)CCN(CC(C)C)C3=O)c1
5,1160 s,O=C(Nc1ccccc1F)C1CCCN(S(=O)(=O)c2cc(-c3noc(C4CCC4)n3)cs2)C1 (centres undefined)
6,989 s,Cc1ccc(-c2ccc(-n3nc(C)c(S(=O)(=O)N4CCCC4)c3C)nn2)cc1
7,770 s,CCOC(=O)Cn1c(C2CC(=O)N(c3ccccc3)C2)nc2ccccc21 (centres undefined)
8,998 s,CSc1ccccc1NC(=O)C(=O)NCC1CCN(C(=O)Oc2ccccc2)CC1
9,816 s,CSc1ccc(CNC(=O)Cn2c(C)cc(-c3nnc(C4CC4)o3)c2C)cc1
10,875 s,CC(C)NC(=O)c1ccc(OCC2CCN(C(=O)CC(C)(C)C)CC2)cc1
11,578 s,Cc1cc(CN2CCC(CNC(=O)NCc3cccs3)CC2)c(C)o1
12,922 s,Cc1cc(C)cc(N2CCC(NC(=O)Nc3cccc(C)c3C)C2=O)c1 (centres undefined)
13,823 s,CCCN1C(=O)COc2ccc(-c3csc(NC(=O)COC)n3)cc21
14,858 s,CCN(CC)C(=O)c1ccc2c(c1)N(CC(=O)Nc1cc(C)cc(C)c1)C(=O)CS2
15,730 s,Cc1nnc(N2CCC(C(=O)NCCc3c[nH]c4ccccc34)CC2)c2nn(-c3ccccc3)c(C)c12
16,784 s,CCC(C)NC(=O)N1CCC(N2CCN(Cc3cccc(C)c3)C2=O)CC1 (centres undefined)
17,875 s,O=C(C1=CN(c2ccc(C(F)(F)F)cc2)c2cc(F)ccc2S1(=O)=O)N1CCOCC1
18,591 s,CN(C)CC1(O)CCC2(CCN(C(=O)C3CCCC3)CC2)CC1
19,996 s,CCN(CC)C(=O)c1cc(C)nc2c1c(=O)n(Cc1nc(-c3ccccc3)oc1C)c(=O)n2C

row,RP-LC retention time,Compound
1,1190 s,CNC(=O)c1cc(Oc2ccc(NC(=O)Nc3ccc(Cl)c(C(F)(F)F)c3)cc2)ccn1
2,591 s,CC(C)NC(=O)N1CCCC(c2cccc(C(=O)NCCN3CCOCC3)c2)C1 (centres undefined)
3,851 s,Cc1nc(-c2ccc(N3CCN(C(=O)COc4ccccc4)CC3)nc2)sc1C
4,626 s,O=C(c1csc(-c2ccc(N3CCOCC3)nc2)n1)N1CCOCC1
5,904 s,O=C(Cc1csc(-c2ccccc2F)n1)NCCc1c[nH]c2ccccc12
6,566 s,Cc1cc(N2CCCC2)n2nc(CN3CCCCC3C)nc2n1 (centres undefined)
7,725 s,CCn1ccc(C(=O)N2CCC3(CC2)C(=O)N(C)c2ccccc23)n1
8,970 s,Cc1cc(C)n(-c2nc(CC(=O)N3CCc4ccccc4C3)cs2)n1
9,806 s,Cn1nccc1-c1csc(S(=O)(=O)NC2CCCC2)c1
10,1180 s,COc1ccc(-c2csc3c(=O)n(CC(=O)OC(C)(C)C)cnc23)cc1
11,702 s,COc1ccc(-c2nc(Nc3nc(C)cc(C)n3)sc2CCC(=O)O)cc1
12,722 s,O=C(Cn1nc2c(N3CCSCC3)nccn2c1=O)NC1CCCC1
13,803 s,COc1ccc(-c2noc(Cn3ccn(-c4ccc(Cl)cc4)c(=O)c3=O)n2)cc1OC
14,598 s,CN1C(=O)NC(c2ccccc2C(F)(F)F)C2=C1CN(CCC(=O)N1CCCC1)C2=O (centres undefined)
15,626 s,Cc1ccc(Cl)cc1N1CCN(CC(O)COc2ccccc2[N+](=O)[O-])CC1 (centres undefined)
16,1080 s,CCOc1ccccc1-c1noc(-c2nnn3c2COC(c2ccc(OC)cc2)C3)n1 (centres undefined)
17,1010 s,CCc1nc(-c2csc(S(=O)(=O)N3CCCC(C(=O)Nc4cccc(C#N)c4)C3)c2)no1 (centres undefined)
18,951 s,Cc1ccc(NC(=O)N2CCN(c3nc4cccnc4n(C)c3=O)CC2)cc1Cl
